Assay results as given in US5574026A, “Methods for inhibiting angiogenesis proliferation of endothelial or tumor cells and tumor growth” (American Cyanamid Company, priority 1994, dated 1996).
Values after ≈ are worked out from the molar mass of the structure shown. Structures can show the parent of a compound that is named as a salt.

Key:
[1] = tested on: Adult Bovine Aortic Endothelial (ABAE) cell line; test: Antiproliferative activity in Adult Bovine Aortic Endothelial (ABAE) cell line, PROTOCOL 2 (48 h, sulforhodamine B); assay type: cell-based; details: Bos taurus, ABAE cells
Experimental: The antiproliferative activity of the compounds of Formula I in an Adult Bovine Aortic Endothelial (ABAE) cell line and in Human Tumor cells lines is evaluated in three similar assays that measure growth inhibition. The assays are identified as follows: PROTOCOLS 1, 2, and 3 are described in greater detail hereinbelow. In general, according to PROTOCOLS 1 and 2, the target ABAE and/or Human Tumor cells are exposed to the compounds of Formula I for 48 hours. PROTOCOL 3 exposes ABAE cells to the compounds for 4 days. A detailed description of the Protocols is as follows: All cell lines are maintained in log phase in RPMI 1640 media, supplemented with 5% fetal calf serum, penicillin/streptomycin and 2 mM L-glutamine. Cultures are renewed after 20 passages with cells from a fresh stock of batch-frozen early passage cells. Cell lines are routinely checked for mycoplasma contamination (Genprobe). In a laminar flow hood, cells (1-5×10^4) are plated into 96-well microtiter plates in a volume of 0.1 ml/well with a bulk microtiter dispenser (Denley). […] At this concentration, dimethylsulfoxide has no effect on cell growth. Compounds are added using a Tomtec dispenser which simultaneously dispenses from one 96-well plate, containing the drug dilutions, to the plates containing the cells. […] The number of cells on the plate are quantitated using a protein dye-binding assay (Monks et al., 1991). […] The optical densities are read from an automatic spectrophotometric plate reader (Dynatech) directly to a main frame computer (VAX 8600). PROTOCOL 2 Antiproliferative Activity in Human Tumor and Adult Bovine Aortic Endothelial Cell Lines (ABAE) The antiproliferative activity of the compounds of Formula I is evaluated in a panel comprised of human tumor cell lines as listed in Protocol 1 as well as an adult bovine aortic endothelial cell line (ABAE). […] Table 1 presents the results depicting the antiproliferative activity of the compounds of Formula I against an ABAE cell line, as evaluated by PROTOCOL 2 and PROTOCOL 3. […]

[2] = tested on: A2780/DDP; test: Antiproliferative activity in human tumor cell lines, PROTOCOL 1 and PROTOCOL 2; assay type: cell-based; details: ovarian tumor cell line /DDP, 48 hours, read-out: IC50
Experimental: The assays are identified as follows: PROTOCOLS 1, 2, and 3 are described in greater detail hereinbelow. In general, according to PROTOCOLS 1 and 2, the target ABAE and/or Human Tumor cells are exposed to the compounds of Formula I for 48 hours. PROTOCOL 3 exposes ABAE cells to the compounds for 4 days. A detailed description of the Protocols is as follows: Antiproliferative Activity in Human Tumor Cell Lines The antiproliferative activity of the compounds of Formula I of the present invention is evaluated in a panel comprised of human tumor cell lines. […] Cultures are renewed after 20 passages with cells from a fresh stock of batch-frozen early passage cells. Cell lines are routinely checked for mycoplasma contamination (Genprobe). In a laminar flow hood, cells (1-5×10^4) are plated into 96-well microtiter plates in a volume of 0.1 ml/well with a bulk microtiter dispenser (Denley). […] Compounds are added using a Tomtec dispenser which simultaneously dispenses from one 96-well plate, containing the drug dilutions, to the plates containing the cells. After two days of continuous drug exposure, 50% cold trichloroacetic acid (TCA) is added to 10% final concentration to fix the cells, and after 60 minutes at 4° C., the TCA is aspirated and the plates are washed 5 times with deionized water using a microtiter plate washer. […] A 0.4% solution of the dye, sulforhodamine B, in glacial acetic acid is added to the plates, and the plates are washed 5 times with 1% glacial acetic acid using the automatic plate washed. The bound stain is solubilized with 0.1 ml of 10 mMTris base. The optical densities are read from an automatic spectrophotometric plate reader (Dynatech) directly to a main frame computer (VAX 8600). Positive controls, that include standard chemotherapeutic drugs (i.e., adriamycin, cisplatin, etc.), are included in every experiment. Background optical density measurements (complete media--cells, and complete media+drug-cells) are automatically subtracted from the appropriate control and test wells. Mean values and standard errors are determined from duplicate wells. A measure is also made of the optical density at time when the drugs are added. The number of cells after treatment (P), as % of control, is calculated for every concentration of drug, as follows: [formula] wherein: T is optical density measurement for treated cells after 48 hours; C is optical density measurement for untreated cells after 48 hours; Co is optical density measurement for cells at the time of drug addition. IC50 of Growth inhibition is calculated from the sets of P values using the RS-1 data package (BBN Software). Antiproliferative Activity in Human Tumor and Adult Bovine Aortic Endothelial Cell Lines (ABAE) The antiproliferative activity of the compounds of Formula I is evaluated in a panel comprised of human tumor cell lines as listed in Protocol 1 as well as an adult bovine aortic endothelial cell line (ABAE). This assay is a modification of PROTOCOL 1.

| SMILES | IC50 [1] [µg/mL] | IC50 [2] [µg/mL] |
| --- | --- | --- |
| CN(C)[C@@H]1C(O)=C(C(N)=O)C(=O)[C@@]2(O)C(O)=C3C(=O)c4c(O)ccc(Br)c4CC3CC12 (stereo partly drawn) [Example 8, [4S-(4α,12aα)]-7-Bromo-4-(dimethylamino)-1,4,4a,5,5a,-6,11,12a-octahydro-3,10,12,12a-tetrahydroxy-1,11-dioxo-2-naphthacenecarboxamide sulfate] | 2.4 | 0.6 |
| CN(C)[C@@H]1C(O)=C(C(N)=O)C(=O)[C@@]2(O)C(O)=C3C(=O)c4c(O)ccc(I)c4CC3CC12 (stereo partly drawn) [Example 10, [4S-(4α,12aα)]-4-(Dimethylamino)-4,4,4a,5,5a,6,11,12a-octahydro-3,10,12,12a-tetrahydroxy-7-iodo-1,11-dioxo-2-naphthacenecarboxamide] | 5 (≈ 9.25 µM) | 4 (≈ 7.4 µM) |
| CN(C)c1ccc(O)c2c1C[C@H]1C[C@H]3[C@H](N(C)C)C(O)=C(C(N)=O)C(=O)[C@@]3(O)C(O)=C1C2=O [Minocycline, reference compound] | > 20 | 6.1 (≈ 13.3 µM) |
